Assay [1] has as its system C. albicans SC5314. Nature of the assay: Antifungal susceptibility testing (MIC). The class given is cell-based, Candida albicans. The following applies: at least 50% growth inhibition, RPMI, 24 h, 34°C. On the procedure: Antifungal susceptibility testing was carried out as described previously ([38], [39]), with a few modifications. Briefly, for each yeast or mold growth inhibition assay, frozen stocks of yeast cells or spores were diluted to a final concentration of 0.5 × 10^5 to 2.5 × 10^5 CFU/ml in sterile water. ZAC989, ZAC307, and ZAC623 were dissolved in DMSO to 10 mM stocks from which half-log serial dilutions were prepared. Growth assays were subsequently performed by pipetting 3 μl of compound dissolved in DMSO (giving a final concentration of 1.5% DMSO), 100 μl of cell-spore suspension, and 97 μl of 2× RPMI medium (20.8 g/liter of RPMI 1640 medium, 69.06 g/liter of morpholinepropanesulfonic acid [MOPS], 36 g/liter of glucose) into a microtiter plate that was incubated for 24 h (yeasts) or 48 to 72 h (molds) at 34°C. Fungal growth was determined spectrophotometrically by optical density reading of each well at a wavelength of 492 nm on a Victor X5 (Perkin-Elmer) plate reader. […] Standard errors between repeated experiments were generally below 5%. The growth effect of exogenous addition of various divalent metals was evaluated by performing the antifungal susceptibility assay in the presence of 5 μM ZAC989 or ZAC307 and with increasing concentrations (0.003 to 50 μM) of ZnSO4, CuSO4, (NH4)2Fe(SO4)2, MgCl2, and CaCl2.

Assay [2] concerns C. albicans BWP17. Kind of assay: Zinbo-5 assay (intracellular zinc). It is filed as cell-based, Candida albicans. The following applies: 9 μg/ml ZAC989, 7 μg/ml ZAC307 (25 μM), 15 μg/ml EDTA, 1.3 μg/ml TPEN; 1, 8 or 24 h. The protocol:
C. albicans BWP17 was grown overnight in YPD medium at 30°C and 150 rpm. The cells were pelleted, washed in PBS buffer (D8537; Sigma) 3 times, and resuspended to an OD600 of 2.0. Two microliters of compound in DMSO was mixed with 100 μl of cell suspension and incubated statically for 1, 8, or 24 h at 30°C in a 96-well black plate. Thirty minutes before the end of the incubation period, 100 μl of 10 μM Zinbo-5 (sc-222425; Santa Cruz Biotechnology) in PBS buffer was added. […] The plate was then read on a plate reader (FLUOstar Optima; BMG Lab Technologies) with excitation at 355 nm and emission at 485 nm. The decrease in Zinbo-5 fluorescence was calculated relative to the untreated DMSO control.

The subject of assay [3] is ZafA target genes. Nature of the assay: RT-qPCR of ZafA target genes and genes not regulated by ZafA. The class given is cell-based, Aspergillus fumigatus. The conditions noted are these: zinc-limiting conditions, 2 h; for expression of the ZafA target genes: 21 μg/ml ZAC307, 27 μg/ml ZAC989, 146 μg/ml EDTA, 10.6 μg/ml TPEN; for expression levels of the genes not regulated by ZafA: 21 μg/ml ZAC307, 27 μg/ml ZAC989. The protocol:
A total of 1.5 × 10^6 conidia of the wild-type strain (AF14) were inoculated into 20 ml of 0.7× sRPMI, 0.05% Tween 20, and 1.2% ethanol dispensed into 100-ml culture flasks pretreated with an overnight wash in 2 mM EDTA (pH 8.0) to minimize the presence of metal traces, followed by a thorough washing with ultrapure Milli-Q water. The flasks were subsequently sterilized in an oven at 180°C. The cultures were incubated for 20 h at 37°C and 200 rpm before the following were added: (i) pure ethanol to a final concentration of 1.2% (vol/vol) (as a reference for the transcription profiles of all genes under zinc-limiting conditions), (ii) 1.2% ethanol plus a solution of ZnSO4 to a final concentration 20 μM zinc (as a reference for the transcription profiles of all genes under zinc-replete conditions following the zinc shift), (iii) 1.2% ethanol plus a solution of EDTA to a final concentration of 500 μM, (iv) 1.2% ethanol plus a solution of TPEN to a final concentration of 10.6 μg/ml, and (v) a 5 mM solution of each test compound (ZAC307 or ZAC989) dissolved in 80% ethanol to a final concentration of 75 μM and 1.2% ethanol (which correspond to 21 μg/ml and 27 μg/ml, respectively). After compound addition, cultures were incubated for 2 h at 37°C and 200 rpm and mycelia were harvested by filtration through filter paper, washed twice with sterile waterm and snap-frozen in liquid nitrogen. After grinding of the mycelia in the presence of liquid nitrogen, total RNA was extracted using an RNeasy plant minikit (74904; Qiagen) according to the manufacturer's instructions. RNA was eluted in 50 μl of RNase-free water. RNA integrity was verified on 0.8% agarose gels stained with ethidium bromide. RNA was stored at −80°C until use.
Total RNA concentration and quality were determined by UV spectrometry (NanoDrop ND1000 spectrophotometer; Thermo Fisher Scientific), and all samples were brought to a final concentration of 150 ng/μl. Total RNA (1.5 μg) was treated with RQ1 DNase I (M610; Promega) and subsequently assessed by conventional PCR for the complete absence of genomic DNA (gDNA). Subsequently, 1 μg of DNase-treated RNA was reversed transcribed using SuperScript II reverse transcriptase (18064-014; Invitrogen, Thermo Fisher Scientific), with random hexamers (11034731001; Roche Diagnostics) as primers. Prior to qPCRs, cDNA samples were diluted 1:3 in water, except in the case of reactions against the 18S rRNA, for which samples were diluted 1:1,200 in water. qPCRs were performed on a Bio-Rad CFX96 instrument. A typical qPCR mixture (10 μl) contained 13.5 ng of cDNA (32 pg when the qPCR was for 18S rRNA), a specific pair of primers (150 nM final concentration), and the SYBR premix Ex Taq (RR420A; TaKaRa). For all qPCRs, 40 cycles were performed using the following cycling conditions: denaturation at 95°C for 10 s, annealing at 59°C for 20 s, and extension at 72°C for 20 s. The relative expression ratio (rER) was calculated using the threshold cycle (2^−ΔΔCT) method ([42]) using the expression level of the 18S rRNA as an internal reference.

[4] abbreviates: Candida albicans, SC5314, 24 h, read-out: MIC.

Values after ≈ are worked out from the molar mass of the structure shown. Read-outs that look alike come from different tables or passages of the source.

`O=C(O)CN(CCN(CC(=O)O)CC(=O)O)CC(=O)O` [EDTA]: the MIC in assay [1] (setting [4]) was ~0.05 µg/mL (≈ 0.171 µM). Besides, the Zinbo-5 fluorescence result in assay [2] is given as “did not reduce the Zinbo-5 fluorescence”. For the same compound, the “expression of the ZafA target genes” value in assay [3] was “upregulation of the most direct ZafA target genes”.

Regarding `c1ccc(CN(CCN(Cc2ccccn2)Cc2ccccn2)Cc2ccccn2)nc1` [TPEN, N,N,N’,N’-tetrakis(2-pyridylmethyl)-ethylenediamine], the MIC in assay [1] (setting [4]) is ~0.05 µg/mL (≈ 0.118 µM). Also, the Zinbo-5 fluorescence entry in assay [2] was “time-dependent decrease in Zinbo-5 fluorescence”. The “expression of the ZafA target genes” value in assay [3] is given as “higher expression of the ZafA target genes than attained with EDTA”.

For `CN(C)c1cc(-n2nc(-c3ccccc3)cc2O)ncn1` [ZAC307, 2-[6-(dimethylamino)pyrimidin-4-yl]-5-phenyl-pyrazol-3-ol], the MIC in assay [1] (setting [4]) was 0.4 µg/mL (≈ 1.42 µM). In addition, the Zinbo-5 fluorescence result in assay [2] was “decreased the Zinbo-5 fluorescence after only 1 h of incubation”. In assay [3], the “expression levels of the genes not regulated by ZafA” value is reported as “reduced expression levels for most of the investigated genes that were not regulated by ZafA” and the “expression of the ZafA target genes” value is recorded as “inhibited the expression of the ZafA target genes”.

Consider `Cc1cc(O)n(-c2cc(N3CC[C@H](Oc4cnccc4C#N)C3)ncn2)n1` [ZAC989, 3-[(3S)-1-[6-(5-hydroxy-3-methyl-pyrazol-1-yl)pyrimidin-4-yl]pyrrolidin-3-yl]oxy-pyridine-4-carbonitrile], for which, in assay [1] (setting [4]), the MIC is 0.4 µg/mL (≈ 1.1 µM). Besides, the MIC in assay [1] came out at 0.6 µg/mL (≈ 1.65 µM). For the same compound, the Zinbo-5 fluorescence entry in assay [2] was “time-dependent decrease in Zinbo-5 fluorescence”. In assay [3], the “expression levels of the genes not regulated by ZafA” value was “did not have a noticeable effect” and the “expression of the ZafA target genes” value is listed as “inhibited the expression of the ZafA target genes”.

As usually defined, the MIC is the lowest concentration found to suppress growth.
